Results taken from PubChem BioAssay AID1963861 (Molecular Pharmacology Branch, DTP, NCI, 2024).
Several values for one entry are separate records, joined by “and”; a condition that tells them apart may be missing. Equal values may be shown once.

Tested on: 885724-159-R-J1-PDC KRAS PDC multicell spheroid viability
Assay: Anticancer human tumor 885724-159-R-J1-PDC patient-derived pancreatic adenocarcinoma cell line growth inhibition [KRAS2]
Conditions: for viability, T/C: stronger effect = lower value
Outline: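 Combination screen of spheroid viability in tumor-cell co-cultures with endothelial (HUVEC) and mesenchymal stem cell stroma. Each agent was tested in half-log dilutions, topping at clinical Cmax or at 10 microM without a known Cmax.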

[1] = curve of first compound, second compound 0.0316 µM
[2] = curve of first compound, second compound 0.1 µM
[3] = curve of first compound, second compound 0.316 µM
[4] = curve of first compound, second compound 1 µM
[5] = curve of first compound, second compound 3.16 µM
[6] = second compound 0.0316 µM, first compound 0.000316 µM
[7] = second compound 0.0316 µM, first compound 0.001 µM
[8] = second compound 0.0316 µM, first compound 0.00316 µM
[9] = second compound 0.0316 µM, first compound 0.01 µM
[10] = second compound 0.0316 µM, first compound 0.0316 µM
[11] = second compound 0.0316 µM, first compound 0.1 µM
[12] = second compound 0.1 µM, first compound 0.000316 µM
[13] = second compound 0.1 µM, first compound 0.001 µM
[14] = second compound 0.1 µM, first compound 0.00316 µM
[15] = second compound 0.1 µM, first compound 0.01 µM
[16] = second compound 0.1 µM, first compound 0.0316 µM
[17] = second compound 0.1 µM, first compound 0.1 µM
[18] = second compound 0.316 µM, first compound 0.000316 µM
[19] = second compound 0.316 µM, first compound 0.001 µM
[20] = second compound 0.316 µM, first compound 0.00316 µM
[21] = second compound 0.316 µM, first compound 0.01 µM
[22] = second compound 0.316 µM, first compound 0.0316 µM
[23] = second compound 0.316 µM, first compound 0.1 µM
[24] = second compound 1 µM, first compound 0.000316 µM
[25] = second compound 1 µM, first compound 0.001 µM
[26] = second compound 1 µM, first compound 0.00316 µM
[27] = second compound 1 µM, first compound 0.01 µM
[28] = second compound 1 µM, first compound 0.0316 µM
[29] = second compound 1 µM, first compound 0.1 µM
[30] = second compound 3.16 µM, first compound 0.000316 µM
[31] = second compound 3.16 µM, first compound 0.001 µM
[32] = second compound 3.16 µM, first compound 0.00316 µM
[33] = second compound 3.16 µM, first compound 0.01 µM
[34] = second compound 3.16 µM, first compound 0.0316 µM
[35] = second compound 3.16 µM, first compound 0.1 µM
[36] = curve of first compound, second compound 10 µM
[37] = second compound 0.1 µM, first compound 0.316 µM
[38] = second compound 0.1 µM, first compound 1 µM
[39] = second compound 0.1 µM, first compound 3.16 µM
[40] = second compound 0.316 µM, first compound 0.316 µM
[41] = second compound 0.316 µM, first compound 1 µM
[42] = second compound 0.316 µM, first compound 3.16 µM
[43] = second compound 1 µM, first compound 0.316 µM
[44] = second compound 1 µM, first compound 1 µM
[45] = second compound 1 µM, first compound 3.16 µM
[46] = second compound 3.16 µM, first compound 0.316 µM
[47] = second compound 3.16 µM, first compound 1 µM
[48] = second compound 3.16 µM, first compound 3.16 µM
[49] = second compound 10 µM, first compound 0.0316 µM
[50] = second compound 10 µM, first compound 0.1 µM
[51] = second compound 10 µM, first compound 0.316 µM
[52] = second compound 10 µM, first compound 1 µM
[53] = second compound 10 µM, first compound 3.16 µM
[54] = second compound 0.1 µM, first compound 10 µM
[55] = second compound 0.316 µM, first compound 10 µM
[56] = second compound 1 µM, first compound 10 µM
[57] = second compound 3.16 µM, first compound 10 µM
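Also: spheroids exposed to agents for 7 days before readout.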

## Cn1ncnc1[C@H]1c2n[nH]c(=O)c3cc(F)cc(c23)N[C@@H]1c1ccc(F)cc1 + C=CC(=O)N1CCN(c2nc(OCC3CCCN3C)nc3c2CCN(c2cccc4cccc(C)c24)C3)CC1CC#N
[1]
  IC50: > 100 nM
[2]
  IC50: > 100 nM
[3]
  IC50: > 100 nM
[4]
  IC50: > 100 nM
[5]
  IC50: > 100 nM
[6]
  viability, T/C: 115%
[7]
  viability, T/C: 117%
[8]
  viability, T/C: 108%
[9]
  viability, T/C: 103%
[10]
  viability, T/C: 97.8%
[11]
  viability, T/C: 96.1%
[12]
  viability, T/C: 106%
[13]
  viability, T/C: 108%
[14]
  viability, T/C: 98.7%
[15]
  viability, T/C: 108%
[16]
  viability, T/C: 106%
[17]
  viability, T/C: 89.5%
[18]
  viability, T/C: 110%
[19]
  viability, T/C: 111%
[20]
  viability, T/C: 106%
[21]
  viability, T/C: 102%
[22]
  viability, T/C: 112%
[23]
  viability, T/C: 88.6%
[24]
  viability, T/C: 100%
[25]
  viability, T/C: 114%
[26]
  viability, T/C: 108%
[27]
  viability, T/C: 101%
[28]
  viability, T/C: 102%
[29]
  viability, T/C: 99.4%
[30]
  viability, T/C: 69.6%
[31]
  viability, T/C: 61.4%
[32]
  viability, T/C: 63.3%
[33]
  viability, T/C: 67.7%
[34]
  viability, T/C: 59.5%
[35]
  viability, T/C: 59.7%

## COc1cc2nc(C)nc(NC(C)c3cc(N)cc(C(F)(F)F)c3)c2cc1OC1CCOC1 (stereo not drawn)
Compound alone, run of 08/19/2021
  IC50: > 10000 nM and 8350 nM and 7910 nM

## CC(=O)OC12COC1CC(O)C1(C)C(=O)C(O)C3=C(C)C(OC(=O)C(O)C(NC(=O)OC(C)(C)C)c4ccccc4)CC(O)(C(OC(=O)c4ccccc4)C21)C3(C)C (stereo not drawn) + CC1OCC2(CCN(c3cnc(Sc4ccnc(N)c4Cl)c(N)n3)CC2)C1N
[2]
  IC50: > 3160 nM
[3]
  IC50: > 3160 nM
[4]
  IC50: > 3160 nM
[5]
  IC50: > 3160 nM
[36]
  IC50: > 3160 nM
[15]
  viability, T/C: 103%
[16]
  viability, T/C: 110%
[17]
  viability, T/C: 108%
[37]
  viability, T/C: 117%
[38]
  viability, T/C: 122%
[39]
  viability, T/C: 121%
[21]
  viability, T/C: 99.7%
[22]
  viability, T/C: 100%
[23]
  viability, T/C: 109%
[40]
  viability, T/C: 114%
[41]
  viability, T/C: 128%
[42]
  viability, T/C: 116%
[27]
  viability, T/C: 112%
[28]
  viability, T/C: 120%
[29]
  viability, T/C: 126%
[43]
  viability, T/C: 122%
[44]
  viability, T/C: 135%
[45]
  viability, T/C: 138%
[33]
  viability, T/C: 76.2%
[34]
  viability, T/C: 86.7%
[35]
  viability, T/C: 88.9%
[46]
  viability, T/C: 93.6%
[47]
  viability, T/C: 97.2%
[48]
  viability, T/C: 97.8%
Second compound 10 µM, first compound 0.01 µM
  viability, T/C: 77.6%
[49]
  viability, T/C: 84.5%
[50]
  viability, T/C: 87.4%
[51]
  viability, T/C: 95.5%
[52]
  viability, T/C: 91.5%
[53]
  viability, T/C: 103%

## CC(C)n1nc(-c2ccc3oc(N)nc3c2)c2c(N)ncnc21 + C=CC(=O)N1CCN(c2nc(OCC3CCCN3C)nc3c2CCN(c2cccc4cccc(C)c24)C3)CC1CC#N
[1]
  IC50: 41.5 nM
[2]
  IC50: 24.2 nM
[3]
  IC50: 19.1 nM
[4]
  IC50: 8.71 nM
[5]
  IC50: 0.86 nM
[6]
  viability, T/C: 88.8%
[7]
  viability, T/C: 77.3%
[8]
  viability, T/C: 67.8%
[9]
  viability, T/C: 60.6%
[10]
  viability, T/C: 49.9%
[11]
  viability, T/C: 45.9%
[12]
  viability, T/C: 88.1%
[13]
  viability, T/C: 80.4%
[14]
  viability, T/C: 69.4%
[15]
  viability, T/C: 61.7%
[16]
  viability, T/C: 44.2%
[17]
  viability, T/C: 41.2%
[18]
  viability, T/C: 82.1%
[19]
  viability, T/C: 73.8%
[20]
  viability, T/C: 61.4%
[21]
  viability, T/C: 55.6%
[22]
  viability, T/C: 45.1%
[23]
  viability, T/C: 41.8%
[24]
  viability, T/C: 81.9%
[25]
  viability, T/C: 85.5%
[26]
  viability, T/C: 63.8%
[27]
  viability, T/C: 50.2%
[28]
  viability, T/C: 44.1%
[29]
  viability, T/C: 41.1%
[30]
  viability, T/C: 68.3%
[31]
  viability, T/C: 43.1%
[32]
  viability, T/C: 42.9%
[33]
  viability, T/C: 15.3%
[34]
  viability, T/C: 24%
[35]
  viability, T/C: 15.7%

## COc1cc(Nc2ncc3c(n2)-c2ccc(Cl)cc2C(c2c(F)cccc2OC)=NC3)ccc1C(=O)O + C=CC(=O)N1CCN(c2nc(OCC3CCCN3C)nc3c2CCN(c2cccc4cccc(C)c24)C3)CC1CC#N
[1]
  IC50: > 10000 nM
[2]
  IC50: > 10000 nM
[3]
  IC50: > 10000 nM
[4]
  IC50: > 10000 nM
[5]
  IC50: < 31.6 nM
[10]
  viability, T/C: 103%
[11]
  viability, T/C: 92.4%
Second compound 0.0316 µM, first compound 0.316 µM
  viability, T/C: 87.9%
Second compound 0.0316 µM, first compound 1 µM
  viability, T/C: 92.4%
Second compound 0.0316 µM, first compound 3.16 µM
  viability, T/C: 93.1%
Second compound 0.0316 µM, first compound 10 µM
  viability, T/C: 105%
[16]
  viability, T/C: 100%
[17]
  viability, T/C: 88.8%
[37]
  viability, T/C: 88.9%
[38]
  viability, T/C: 90.4%
[39]
  viability, T/C: 99.4%
[54]
  viability, T/C: 100%
[22]
  viability, T/C: 89.2%
[23]
  viability, T/C: 84%
[40]
  viability, T/C: 83.6%
[41]
  viability, T/C: 84.2%
[42]
  viability, T/C: 76.6%
[55]
  viability, T/C: 89%
[28]
  viability, T/C: 80%
[29]
  viability, T/C: 76.9%
[43]
  viability, T/C: 77.8%
[44]
  viability, T/C: 75.1%
[45]
  viability, T/C: 75.7%
[56]
  viability, T/C: 78.2%
[34]
  viability, T/C: 46.9%
[35]
  viability, T/C: 46.3%
[46]
  viability, T/C: 42.3%
[47]
  viability, T/C: 54.5%
[48]
  viability, T/C: 60%
[57]
  viability, T/C: 44.6%

## COc1cc(Nc2ncc3c(n2)-c2ccc(Cl)cc2C(c2c(F)cccc2OC)=NC3)ccc1C(=O)O
Compound 0.0316 µM
  viability, T/C: 93.8% [middle of 5 runs]
Compound 0.1 µM
  viability, T/C: 89.1% [middle of 5 runs]
Compound 0.316 µM
  viability, T/C: 88.7% [middle of 5 runs]
Compound 1 µM
  viability, T/C: 90% [middle of 5 runs]
Compound 3.16 µM
  viability, T/C: 96.2% [middle of 5 runs]
Compound 10 µM
  viability, T/C: 98.4% [middle of 5 runs]
Curve of compound
  IC50: > 10000 nM

## COc1cc2nccc(Oc3ccc(NC(=O)C4(C(=O)Nc5ccc(F)cc5)CC4)cc3)c2cc1OC + COc1cc2nc(C)nc(NC(C)c3cc(N)cc(C(F)(F)F)c3)c2cc1OC1CCOC1
[2]
  IC50: > 10000 nM
[3]
  IC50: > 10000 nM
[4]
  IC50: 4630 nM
[5]
  IC50: 1720 nM
[36]
  IC50: < 31.6 nM
[16]
  viability, T/C: 99.6%
[17]
  viability, T/C: 102%
[37]
  viability, T/C: 104%
[38]
  viability, T/C: 91%
[39]
  viability, T/C: 65.2%
[54]
  viability, T/C: 60%
[22]
  viability, T/C: 96.6%
[23]
  viability, T/C: 93.5%
[40]
  viability, T/C: 93.1%
[41]
  viability, T/C: 80.9%
[42]
  viability, T/C: 65.8%
[55]
  viability, T/C: 54.8%
[28]
  viability, T/C: 97.4%
[29]
  viability, T/C: 93.4%
[43]
  viability, T/C: 76.2%
[44]
  viability, T/C: 73.9%
[45]
  viability, T/C: 48.7%
[56]
  viability, T/C: 44.6%
[34]
  viability, T/C: 88.8%
[35]
  viability, T/C: 97.9%
[46]
  viability, T/C: 89.5%
[47]
  viability, T/C: 67.6%
[48]
  viability, T/C: 28.7%
[57]
  viability, T/C: 31.8%
[49]
  viability, T/C: 55%
[50]
  viability, T/C: 17.2%
[51]
  viability, T/C: 21.5%
[52]
  viability, T/C: 28.1%
[53]
  viability, T/C: 0.71%
Second compound 10 µM, first compound 10 µM
  viability, T/C: 0.34%
